“Also recorded” adds a separate entry of the source. Read-outs that look alike come from different tables or passages of the source.
Key:
HBMEC [1] = assay: E. coli K1 binding and invasion assays in human BMEC (HBMEC); format: cell-based; details: for E. coli K1 invasion of HBMEC: strain RS218, HBMEC pretreated 30 mins, compared to vehicle control (DMSO); for E. coli K1 invasion of human BMEC monolayers: inhibitors of cPLA2α, Rho kinase, Rac1 and PKC
Protocol: E. coli strain RS218 was grown overnight in BHI broth in the presence of streptomycin (50 μg/ml). Bacteria were resuspended in experimental medium [M199-HamF12 (1:1) containing 5% heat-inactivated fetal bovine serum, 2 mM glutamine, and 1 mM pyruvate] and added in a multiplicity of infection (MOI) of 100:1 to HBMEC grown in collagen-coated 24-well plates at 37° C. in 5% CO2 incubator for 90 min for binding assay as described previously (9, 10, 14, 28). HBMEC were washed four times with PBS to remove unbound bacteria, lysed in 0.025% Triton X-100 and plated for determinations of CFUs. The results were calculated as a percent of the initial inoculum and expressed as percent relative binding compared to percent binding of RS218 in the presence of vehicle control (DMSO). Each set was run in triplicates.
The HBMEC invasion assay with gentamicin treatment was performed to determine the number of viable intracellular bacteria recovered from the infected HBMEC, as previously described (9, 10, 14, 28). E. coli K1 strain RS218 was added to HBMEC as described above for binding assay. HBMEC were subsequently washed with RPMI 1640 and incubated with experimental media containing gentamicin (100 μg/ml) for 1 h to kill extracellular bacteria. The cells were washed again with PBS and lysed in 0.025% Triton X-100. The released intracellular bacteria were enumerated by plating on sheep blood agar plates. The results were calculated as a percent of the initial inoculum and expressed as percent relative invasion compared to percent invasion of RS218 in the presence of vehicle control (DMSO). Each set was run in triplicates.
To examine the effects of inhibitors and antagonists on E. coli K1 binding to and invasion of HBMEC, HBMEC were pretreated with inhibitors or antagonists for 30 mins before addition of E. coli, and then processed for binding and invasion assays as described above.
E. coli strain RS218 (O18:K1:H7), a cerebrospinal fluid isolate from a neonate with meningitis, was grown overnight in brain heart infusion (BHI) broth (Difco Laboratories, Detroit, Mich.). Bacteria were resuspended in experimental medium [M199-HamF12 (1:1) containing 5% heat-inactivated fetal bovine serum, 2 mM glutamine, and 1 mM pyruvate] and added in a multiplicity of infection (MOI) of 100:1 to BMECs grown in collagen-coated 24-well plates at 37° C. in 5% CO2 incubator for 90 min for binding assay, as previously described^11. BMECs were washed four times with PBS to remove unbound bacteria, lysed in 0.025% Triton X-100 and plated for determinations of CFUs. The results were calculated as a percent of the initial inoculum and expressed as percent relative binding compared to percent binding of RS218 in the presence of vehicle control (DMSO). Each set was run in triplicates.
The BMEC invasion assay with gentamicin treatment^11 was performed to determine the number of viable intracellular bacteria recovered from the infected BMECs. E. coli K1 strain RS218 was added to BMEC as described above for binding assay. BMECs were subsequently washed with RPMI 1640 and incubated with experimental media containing gentamicin (100 μg/ml) for 1 h to kill extracellular bacteria. The cells were washed again with PBS, lysed in 0.025% Triton X-100, and the released intracellular bacteria were enumerated by plating on sheep blood agar plates. The results were calculated as a percent of the initial inoculum and expressed as percent relative invasion compared to percent invasion of RS218 in the presence of vehicle control (DMSO). Each set was run in triplicates.
E. coli. Human BMEC association and invasion assays were carried out as described previously (15). Briefly, for association assays, confluent human BMEC in 24-well tissue culture plates were incubated with 10^7 CFU of E. coli at a multiplicity of infection of 100 for 90 minutes at 37° C. […]

HBMEC [2] = details: cited from earlier work; for E. coli invasion of HBMEC: pretreatment with microfilament-disrupting agents, previous experiments; for E. coli invasion of human BMEC: inhibitors of iPLA2 and sPLA2, refs (1-3, 24)
[3] = cited from earlier work
human BMEC [4] = details: inhibitors of iPLA2 and sPLA2; refs (1-3, 24); cited from earlier work
human BMEC [5] = assay: Type III GBS binding and invasion assays in human BMEC; format: cell-based; details: inhibitors of cPLA2α, Rho kinase, Rac1 and PKC
Protocol: GBS. Logarithmic phase cultures of GBS grown in Todd-Hewitt broth at 37° C. were washed and suspended in tissue culture medium. Approximately 5×10^5 CFUs of GBS were added to confluent human BMEC grown in each well of a 24-well plate (Corning Costar, multiplicity of infection of 5 bacteria/cell). The plates were centrifuged at 800×g for 10 min to promote the contact of GBS to the surface of the human BMEC monolayer, and then they were incubated for 2 hr at 37° C. The monolayers were washed three times with PBS and incubated with medium containing gentamicin (100 μg/ml) and penicillin (5 μg/ml) at 37° for 2 hr to kill extracellular bacteria. The monolayers were washed again, lysed, and viable intracellular bacteria were enumerated by culturing onto sheep blood agar plates. The percent invasion was calculated as (the number of intracellular bacteria divided by the number of bacteria inoculated)×100. Each assay was run in triplicate and also repeated at least twice. In one set of experiments the total GBS associated with human BMEC were quantified by the above procedure except that the incubation with gentamicin/penicillin was omitted.
Briefly, human BMEC were pretreated with AACOCF3 for 60 min, and then processed for type III GBS and E. coli K1 binding and invasion assays, as described above.
We next examined the effect of montelukast on type III GBS and E. coli K1 invasion of human BMEC by the methods described earlier. Briefly, human BMEC were treated with monelukast for 60 min and then processed for binding and invasion assays with type III GBS strain K79 and E. coli K1 strain RS 218.

PKC = assay: Activation of PKC and other signaling molecules in response to microbes in human BMEC; format: cell-based; details: response to type III GBS and E. coli K1 in human BMEC monolayers
Source text: We have previously shown that RhoGTPases and PKC contribute to type III GBS and E. coli K1 invasion of BMEC monolayers (1-3), and our next studies were to examine whether cPLA2α activations are related to RhoGTPases and PKC in type III GBS and E. coli K1 invasion of human BMEC monolayers (e.g., up- and down-stream of each other) by using inhibitors of cPLA2α (AACOCF3), Rho kinase (Y-27632), Rac1 (NSC-23766) and PKC (calphostin C).

E. coli K1 strain RS218 = assay: Mouse model of experimental hematogenous E. coli meningitis (5-LO-/- and wild-type 129SvEv mice); format: in vivo
Source text: Female 5-LO−/− (129-Alox5^tm1Fun/J) and strain-matched (129SvEv) wild-type mice, 9˜12 week old and 18˜26 gm, were used (23). […] Most animals receiving 1×10^7 CFUs, however, died between one and two hour of intravenous inoculation. Based on these observations, we examined and compared E. coli K1 penetration into the brain at one hour following intravenous administration of 1×10^7 CFUs of strain RS218 in 5-LO−/− and wild type mice.
Mice were anesthetized with pentobarbital sodium given subcutaneously at 50 mg/kg and each mouse received 1×10^7 CFU of E. coli RS218 in 100 μl PBS via the tail vein. One hour later, mouse chest was cut open, and blood from right ventricle was collected and plated for bacterial counts (CFUs). The mouse was, then, perfused with a mammalian Ringer's solution by transcardiac perfusion through a 23-gauge needle inserted into the left ventricle of the heart under the perfusion pressure of about 100 mmHg. The perfusate exited through a cut in the right atrium. The composition of the mammalian Ringer solution was: (in mM) 132 NaCl, 4.6 KCl, 2 CaCl2, 1.2 MgSO4, 5.5 glucose, 5.0 NaHCO3, and 20 HEPES and Na-HEPES, containing 10 mg/ml BSA; pH of the Ringer solution was maintained at 7.40-7.45 by adjustment of the ratio of Na-HEPES to HEPES. […] Bacterial penetration into the brain was also expressed as (brain CFUs per gm/blood CFUs per ml)×100. […]

Compound: CC(C)c1ccc2c(c1)c(SC(C)(C)C)c(CC(C)(C)C(=O)O)n2Cc1ccc(Cl)cc1 [MK886]
- E. coli K1 invasion of HBMEC (HBMEC [1]): significantly inhibited E. coli K1 invasion of HBMEC in a dose-dependent manner

Compound: O=C(O)C1(c2ccc3c(c2)OC[C@H](Cc2ccc(-c4ccccc4)cc2)[C@H]3O)CCCC1 [CP105696]
- E. coli K1 invasion of HBMEC (HBMEC [1]): failed to affect E. coli K1 invasion of human BMEC monolayers; also recorded: failed to exhibit any inhibition of E. coli invasion of HBMEC

Compound: C=C1[C@@H](C)[C@H]2[C@H](Cc3ccccc3)NC(=O)[C@]23[C@H](OC(C)=O)/C=C/[C@@](C)(O)C(=O)[C@@H](C)C/C=C/[C@H]3[C@@H]1O [cytochalasin D]
- E. coli invasion of HBMEC (HBMEC [2]): inhibited

Compound: O=C(Nc1cccc2c(=O)cc(-c3nnn[nH]3)oc12)c1ccc(OCCCCc2ccccc2)cc1 [pranlukast]
- safety and tolerability in clinical trials ([3]; in vivo): safe and well tolerated

Compound: O=C1O/C(=C/Br)CCC1c1cccc2ccccc12 (stereo not shown) [bromoenol lactone]
- E. coli invasion of human BMEC (HBMEC [2]): did not exhibit any significant inhibition
- GBS invasion of human BMEC (human BMEC [4]): did not exhibit any significant inhibition

Compound: CC(=O)O[C@@H]1C[C@@H]2[C@@]3(C)CCCC(C)(C)[C@@H]3CC[C@@]2(C)[C@@H]2CC=C(C=O)[C@H](C=O)[C@@]12C [12-episcalaradial]
- E. coli invasion of human BMEC (HBMEC [2]): did not exhibit any significant inhibition
- GBS invasion of human BMEC (human BMEC [4]): did not exhibit any significant inhibition

Compound: calphostin C
- type III GBS invasion of human BMEC monolayers (human BMEC [5]): inhibited type III GBS and E. coli K1 invasion of human BMEC monolayers in a dose-dependent manner
- inhibition of other signaling molecules (PKC): did not exhibit any inhibition of other signaling molecules
- E. coli K1 invasion of human BMEC monolayers (HBMEC [1]): inhibited type III GBS and E. coli K1 invasion of human BMEC monolayers in a dose-dependent manner

Compound: CCN(CC)CCCC(C)Nc1nc(C)cc(Nc2ccc3nc(C)cc(N)c3c2)n1 (stereo not shown) [NSC-23766]
- type III GBS invasion of human BMEC monolayers (human BMEC [5]): inhibited type III GBS and E. coli K1 invasion of human BMEC monolayers in a dose-dependent manner
- inhibition of other signaling molecules (PKC): did not exhibit any inhibition of other signaling molecules
- E. coli K1 invasion of human BMEC monolayers (HBMEC [1]): inhibited type III GBS and E. coli K1 invasion of human BMEC monolayers in a dose-dependent manner

Compound: CC(c1cc2ccccc2s1)N(O)C(N)=O (stereo not shown) [zileuton, Zileuton]
- safety and tolerability in clinical trials ([3]; developed for asthma): safe and well tolerated
- E. coli K1 invasion of HBMEC (HBMEC [1]): significantly inhibited E. coli K1 invasion of HBMEC in a dose-dependent manner

Compound: C/C1=C/C(=O)O[C@@H]2C[C@@H](CC[C@H](C)/C=C\C=C\CC1)O[C@@](O)([C@@H]1CSC(=O)N1)C2 [latrunculin A]
- E. coli invasion of HBMEC (HBMEC [2]): inhibited

Compound: C[C@@H](N)[C@H]1CC[C@H](C(=O)Nc2ccncc2)CC1 [Y-27632]
- type III GBS invasion of human BMEC monolayers (human BMEC [5]): inhibited type III GBS and E. coli K1 invasion of human BMEC monolayers in a dose-dependent manner
- inhibition of other signaling molecules (PKC): did not exhibit any inhibition of other signaling molecules
- E. coli K1 invasion of human BMEC monolayers (HBMEC [1]): inhibited type III GBS and E. coli K1 invasion of human BMEC monolayers in a dose-dependent manner

Compound: CN(C)C(=O)CCSC(SCCC(=O)O)c1cccc(/C=C/c2ccc3ccc(Cl)cc3n2)c1 (stereo not shown) [MK571]
- E. coli K1 penetration into the brain (brain CFU/gm and percent of brain CFU/blood CFU) (E. coli K1 strain RS218; wild type mice, oral 400 μg/mouse one hour before bacterial injection, one hour after i.v. 1×10^7 CFU): significantly decreased E. coli K1 penetration into the brain in the wild type mice; also recorded: significantly decreased E. coli K1 penetration into the brain of wild type mice
- E. coli K1 invasion of HBMEC (HBMEC [1]): inhibited E. coli K1 invasion of human BMEC monolayers in a dose-dependent manner; also recorded: effective in inhibiting E. coli invasion of HBMEC in a dose-dependent manner

Compound: COc1cc(C(=O)NS(=O)(=O)c2ccccc2C)ccc1Cc1cn(C)c2ccc(NC(=O)OC3CCCC3)cc12 [zafirlukast]
- safety and tolerability in clinical trials ([3]; developed for asthma): safe and well tolerated
- E. coli K1 invasion of HBMEC (HBMEC [1]): effective in inhibiting E. coli invasion of HBMEC in a dose-dependent manner

Compound: CCCCC/C=C\C\C=C/C=C/C=C/[C@@H](SC[C@H](N)C(=O)NCC(=O)O)[C@@H](O)CCCC(=O)O [LTD4]
- E. coli penetration into the brains (E. coli K1 strain RS218; 5-LO-/- mice, one hour after i.v. E. coli K1 strain RS218): rescued the decreased E. coli penetration into the brains

From patent US8980917B2, “Methods for treating or preventing brain infections” (The Johns Hopkins University, priority 2008, dated 2015)
